Source: patent publication US9499550B2 (BRISTOL-MYERS SQUIBB COMPANY, priority 2012, dated 2016)
Where two headings read alike, the source gives them in different places.

Experiments:
[1] = test system: HCV genotype 1a (H77 strain) replicon in HUH-7 cells; assay: HCV replicon luciferase reporter assay, genotype 1a; assay type: cell-based; conditions: Hepatitis C virus, Huh-7, 72 h, 3 days incubation
Outline: (§1)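 Replicon inhibition for both genotypes was measured as Renilla luciferase signal (EnduRen, 7.5 μM final, 2 h) after 3-day, 37° C exposure of replicon-bearing HUH-7 cells in 4% FCS DMEM, 0.5% DMSO. The 1b construct carries S1179I; the 1a H77 construct carries P1496L and S2204I. Twenty-point, 3-fold dilutions were fitted four-parametrically for EC50, and CC50 was taken from multiplexed Cell Titer-Blue.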

[2] = test system: HCV genotype 1b (Con1) replicon in HUH-7 cells; assay: HCV replicon luciferase reporter assay, genotype 1b; assay type: cell-based; conditions: Hepatitis C virus, Huh-7, 72 h, 3 days incubation
Outline: as §1

[3] = HCV genotype 1a replicon luciferase, read-out: LE_1a (EC50, range)
[4] = HCV genotype 1b replicon luciferase, read-out: LE_1b (EC50, range)
[5] = HCV genotype 1a replicon luciferase assay, range class, read-out: LE_1a (EC50, range)
[6] = HCV genotype 1b replicon luciferase assay, range class, read-out: LE_1b (EC50, range)
[7] = HCV genotype 1a replicon luciferase assay, read-out: LE_1a (EC50)
[8] = HCV genotype 1b replicon luciferase assay, read-out: LE_1b (EC50)

Row | SMILES | EC50 [1, 3] [nM] | EC50 [2, 4] [nM] | EC50 [1, 5] [nM] | EC50 [2, 6] [nM] | other results
1 | CCOc1ccc2c(O[C@@H]3C[C@H]4C(=O)N[C@]5(C(=O)NS(=O)(=O)C6(CF)CC6)C[C@H]5/C=C\CC[C@@H](C)C[C@@H](C)[C@H](NC(=O)OC(C)(C)C(C)(F)F)C(=O)N4C3)nccc2c1 [Compound 5365, 3,3-difluoro-2-methylbutan-2-yl((2R,6S,7R,9R,13aS,14aR,16aS,Z)-2-((6-ethoxyisoquinolin-1-yl)oxy)-14a-(((1-(fluoromethyl)cyclopropyl)sulfonyl)carbamoyl)-7,9-dimethyl-5,16-dioxo-1,2,3,5,6,7,8,9,10,11,13a,14,14a,15,16,16a-hexadecahydrocyclopropa[e]pyrrolo[1,2-a][1,4]diazacyclopentadecin-6-yl)carbamate] | 1.01 to 5 | 0.51 to 1 | – | – | –
2 | CC[C@@H]1C[C@H](C)CC/C=C\[C@@H]2C[C@@]2(C(=O)NS(=O)(=O)C2(C)CC2)NC(=O)[C@@H]2C[C@@H](Oc3ncc(OC4CC4)c4ccccc34)CN2C(=O)[C@H]1NC(=O)OC(C)(C)C(F)(F)F [Compound 4223] | – | – | – | – | EC50 ([1]; GETYPE1A, HCV genotype 1a replicon luciferase, read-out: LE_1a (EC50, range)): < 5.46 nM; EC50 ([2]; GETYPE1B, HCV genotype 1b replicon luciferase, read-out: LE_1b (EC50, range)): < 5.46 nM
3 | C[C@@H]1CC/C=C\[C@@H]2C[C@@]2(C(=O)NS(=O)(=O)C2(C)CC2)NC(=O)[C@@H]2C[C@@H](Oc3nccc4c5c(ccc34)OCCO5)CN2C(=O)[C@@H](NC(=O)O[C@@H]2C[C@@H]3C[C@@H]3C2)[C@H](C)C1 [Compound 5249, (1R,3r,5 S)-bicyclo[3.1.0]hexan-3-yl((2R,6S,7R,9R,13aS,14aR,16aS,Z)-2-((2,3-dihydro-[1,4]dioxino[2,3-f]isoquinolin-7-yl)oxy)-7,9-dimethyl-14a-(((1-methylcyclopropyl)sulfonyl)carbamoyl)-5,16-dioxo-1,2,3,5,6,7,8,9,10,11,13a,14,14a,15,16,16a-hexadecahydrocyclopropa[e]pyrrolo[1,2-a][1,4]diazacyclopentadecin-6-yl)carbamate] | < 5.46 | < 5.46 | – | – | –
4 | COc1cc(F)cc2c(O[C@@H]3C[C@H]4C(=O)N[C@]5(C(=O)NS(=O)(=O)C6CC6)C[C@H]5/C=C\CC[C@H](C)C[C@@H](C)[C@H](NC(=O)O[C@@H]5C[C@@H]6C[C@@H]6C5)C(=O)N4C3)nccc12 [Compound 3167, (1R,3r,5S)-bicyclo[3.1.0]hexan-3-yl((2R,6S,7R,9S,13aS,14aR,16aS,Z)-14a-((cyclopropylsulfonyl)carbamoyl)-2-((7-fluoro-5-methoxyisoquinolin-1-yl)oxy)-7,9-dimethyl-5,16-dioxo-1,2,3,5,6,7,8,9,10,11,13a,14,14a,15,16,16a-hexadecahydrocyclopropa[e]pyrrolo[1,2-a][1,4]diazacyclopentadecin-6-yl)carbamate] | – | – | 4.82 to 103 | < 5.46 | –
5 | COc1ccc2c(O[C@@H]3C[C@H]4C(=O)N[C@]5(C(=O)NS(=O)(=O)C6(CF)CC6)C[C@H]5/C=C\CC[C@@H](C)C[C@@H](C)[C@H](NC(=O)OC(C)(C)C)C(=O)N4C3)nc(OC)nc2c1 [Compound 3015, tert-butyl ((2R,6S,7R,9R,13aS,14aR,16aS,Z)-2-((2,7-dimethoxyquinazolin-4-yl)oxy)-14a-(((1-(fluoromethyl)cyclopropyl)sulfonyl)carbamoyl)-7,9-dimethyl-5,16-dioxo-1,2,3,5,6,7,8,9,10,11,13a,14,14a,15,16,16a-hexadecahydrocyclopropa[e]pyrrolo[1,2-a][1,4]diazacyclopentadecin-6-yl)carbamate] | – | – | < 5.46 | < 5.46 | –
6 | COc1ccc2c(O[C@@H]3C[C@H]4C(=O)N[C@]5(C(=O)NS(=O)(=O)C6(F)CC6)C[C@H]5/C=C\CC[C@H](C)C[C@@H](C)[C@H](NC(=O)OC(C)(C)C)C(=O)N4C3)nccc2c1 [Compound 10, tert-butyl ((2R,6S,7R,9S,13aS,14aR,16aS,Z)-14a-(((1-fluorocyclopropyl)sulfonyl)carbamoyl)-2-((6-methoxyisoquinolin-1-yl)oxy)-7,9-dimethyl-5,16-dioxo-1,2,3,5,6,7,8,9,10,11,13a,14,14a,15,16,16a-hexadecahydrocyclopropa[e]pyrrolo[1,2-a][1,4]diazacyclopentadecin-6-yl)carbamate] | – | – | < 5.46 | < 5.46 | EC50 [1, 7]: 3.08 nM; EC50 [2, 8]: 0.8 nM
7 | COc1ccc2c(O[C@@H]3C[C@H]4C(=O)N[C@]5(C(=O)NS(=O)(=O)C6(C)CC6)C[C@H]5/C=C\CC[C@@H](C)C[C@@H](C)[C@H](NC(=O)OC(C)(C)C(F)(F)F)C(=O)N4C3)nc(-c3ccc(OC(C)C)nc3)cc2c1 [Compound 5225, 1,1,1-trifluoro-2-methylpropan-2-yl((2R,6S,7R,9R,13aS,14aR,16aS,Z)-2-((3-(6-isopropoxypyridin-3-yl)-6-methoxyisoquinolin-1-yl)oxy)-7,9-dimethyl-14a-(((1-methylcyclopropyl)sulfonyl)carbamoyl)-5,16-dioxo-1,2,3,5,6,7,8,9,10,11,13a,14,14a,15,16,16a-hexadecahydrocyclopropa[e]pyrrolo[1,2-a][1,4]diazacyclopentadecin-6-yl)carbamate] | < 5.46 | < 5.46 | – | – | –
8 | COCCn1nc(O[C@@H]2C[C@H]3C(=O)N[C@]4(C(=O)NS(=O)(=O)C5CC5)C[C@H]4/C=C\CC[C@@H](C)C[C@@H](C)[C@H](NC(=O)OC(C)(C)C(C)(F)F)C(=O)N3C2)c2ccccc2c1=O [Compound 1024, 3,3-difluoro-2-methylbutan-2-yl((2R,6S,7R,9R,13aS,14aR,16aS,Z)-14a-((cyclopropylsulfonyl)carbamoyl)-2-((3-(2-methoxyethyl)-4-oxo-3,4-dihydrophthalazin-1-yl)oxy)-7,9-dimethyl-5,16-dioxo-1,2,3,5,6,7,8,9,10,11,13a,14,14a,15,16,16a-hexadecahydrocyclopropa[e]pyrrolo[1,2-a][1,4]diazacyclopentadecin-6-yl)carbamate] | – | – | 4.82 to 103 | 4.82 to 103 | –
9 | C[C@@H]1CC/C=C\[C@@H]2C[C@@]2(C(=O)NS(=O)(=O)C2CC2)NC(=O)[C@@H]2C[C@@H](Oc3ncc(OC4CC4)c4ccccc34)CN2C(=O)[C@@H](NC(=O)OC(C)(C)C)[C@H](C)C1 [Compound 22, tert-butyl ((2R,6S,7R,9R,13aS,14aR,16aS,Z)-2-((4-cyclopropoxyisoquinolin-1-yl)oxy)-14a-((cyclopropylsulfonyl)carbamoyl)-7,9-dimethyl-5,16-dioxo-1,2,3,5,6,7,8,9,10,11,13a,14,14a,15,16,16a-hexadecahydrocyclopropa[e]pyrrolo[1,2-a][1,4]diazacyclopentadecin-6-yl)carbamate] | – | – | < 5.46 | < 5.46 | EC50 [1, 7]: 0.43 nM; EC50 [2, 8]: 0.4 nM
10 | COc1ccc2c(O[C@@H]3C[C@H]4C(=O)N[C@]5(C(=O)NS(=O)(=O)C6(C(F)F)CC6)C[C@H]5/C=C\CC[C@@H](C)C[C@@H](C)[C@H](NC(=O)OC(C)(C)C(C)(F)F)C(=O)N4C3)nc(OC)cc2c1 [Compound 1182] | – | – | – | – | EC50 ([1]; GETYPE1A, HCV genotype 1a replicon luciferase assay, range class, read-out: LE_1a (EC50, range)): < 5.46 nM; EC50 ([2]; GETYPE1B, HCV genotype 1b replicon luciferase assay, range class, read-out: LE_1b (EC50, range)): < 5.46 nM
11 | COc1ccc2nc(OC)c(O[C@@H]3C[C@H]4C(=O)N[C@]5(C(=O)NS(=O)(=O)C6(C)CC6)C[C@H]5/C=C\CC[C@@H](C)C[C@@H](C)[C@H](NC(=O)OC(C)(C)C)C(=O)N4C3)cc2c1 [Compound 4373, tert-butyl ((2R,6S,7R,9R,13aS,14aR,16aS,Z)-2-((2,6-dimethoxyquinolin-3-yl)oxy)-7,9-dimethyl-14a-(((1-methylcyclopropyl)sulfonyl)carbamoyl)-5,16-dioxo-1,2,3,5,6,7,8,9,10,11,13a,14,14a,15,16,16a-hexadecahydrocyclopropa[e]pyrrolo[1,2-a][1,4]diazacyclopentadecin-6-yl)carbamate] | 0.1 to 0.5 | 0.1 to 0.5 | – | – | –
